Several values for one entry are separate records, joined by “and”; a condition that tells them apart may be missing. Equal values may be shown once. Read-outs that look alike come from different tables or passages of the source.
How the values were obtained:
[1] = test system: cyanobacteria; assay type: cell-based
[2] = test system: cyanobacteria; assay type: cell-based; remark: listed apart in the source

**Q.** `O=S(=O)([O-])[O-].O=S(=O)([O-])[O-].O=S(=O)([O-])[O-].[Al+3].[Al+3]` [Al2(SO4)3, reference compound] was tested. Which “Microcystin concentration determined by the assay” value (“Microcystin concentration” below) ([1]; 100 ppm) did it give?
**A.** 0.45 ppb

**Q.** For `O=S(=O)([O-])[O-].[Cu+2]` [CuSO4, copper sulfate], which “Microcystin concentration” value ([1]; 10 ppm) is on record?
**A.** 2.40 ppb

**Q.** And the “Microcystin concentration” value ([1]; 100 ppm)?
**A.** 2.31 ppb

**Q.** And the “Microcystin concentration” value ([1]; 1000 ppm)?
**A.** 7.25 ppb and 5.17 ppb

**Q.** And the “Microcystin concentration” value ([1]; 1000 ppm for 10 min)?
**A.** 4.28 ppb

**Q.** What about the “Microcystin concentration” value ([1]; 1000 ppm for 20 min) of the same compound?
**A.** 4.96 ppb

**Q.** What about the “Microcystin concentration” value ([1]; 1000 ppm for 30 min) of the same compound?
**A.** 5.64 ppb

**Q.** What about the “Microcystin concentration” value ([1]; 5000 ppm) of the same compound?
**A.** 4.79 ppb

**Q.** Which “Microcystin concentration” value ([1]; 0.1%) does the source give for `CCCCCCCCCCCCOS(=O)(=O)[O-].[Na+]` [SDS, reference compound] here?
**A.** 14.13 ppb

**Q.** For `O=[N+]([O-])[O-].[Ag+]` [Silver nitrate], which “effectiveness as a lytic agent” value [2] is on record?
**A.** as effective as silver sulfate as a lytic agent

**Q.** For Triton X-100 [reference compound], which “Microcystin concentration” value [1] is on record?
**A.** 2.92 ppb and 2.52 ppb and 2.55 ppb

Reference: patent publication US11035856B1 (priority 2007, dated 2021)
